# Test results published in patent EP3581565A1, “PHENYL BENZYL ETHER DERIVATIVE AND PREPARATION METHOD AND APPLICATION THEREOF” (Beijing Zhibo Bio-Medical Technology Co., Ltd., priority 2018, dated 2019).
# Test system: not listed separately
# Assay: logD of labeled ligands
# Type: physicochemical
row,logD,SMILES
1,[^125I]31a(logD = 3.96± 0.22),FCCOc1ccc(OCc2ccc([125I])cc2)cc1 [[^125I]31a]
2,[^18F]44a(logD = 3.05 ± 0.08),COc1ccc(OCc2ccc(OCC[18F])cc2)cc1 [[^18F]44a]
3,[^18F] 53a (logD= 3.65 ±0.04),COc1ccc(COc2ccc(OCC[18F])cc2)cc1 [[^18F] 53a]
4,[^125I]24 (logD = 4.16± 0.29),COc1ccc(COc2ccc([125I])cc2)cc1 [[^125I]24]
5,[^125I]22(logD = 2.89± 0.09),CN(C)c1ccc(OCc2ccc([125I])cc2)cc1 [[^125I]22]
6,[^125I]4 (logD = 4.00± 0.08),COc1ccc(OCc2ccc([125I])cc2)cc1 [[^125I]4]

# Target: T1, Aβ1-42 aggregates (Homo sapiens, UniProt P05067)
# T1 construct: Preparing receptor Aβ1-42 proteins according to the existing method
# Assay: In-vitro competitive binding experiment (Ki determination) with Aβ1-42 aggregates
# Method: 4, the compounds are separated after balancing, and the inhibition constant (Ki) is calculated by determining radioactivity.
# • (1) Preparing 41 of PBS (0.2M) buffer solution with pH=7.4; • (2) Preparing radioligand [^125I]
# T1 sequence (P05067 672-713 limits assumed): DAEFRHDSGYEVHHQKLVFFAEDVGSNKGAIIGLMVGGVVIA
row,Ki [nM],SMILES
1,163 ± 23,"Brc1ccc(OCc2ccc(I)cc2)cn1 [Compound 57, 2-bromo-5-((4-iodobenzyl)oxy) pyridine]"
2,880 ± 72.4,"Clc1ccc(OCc2ccc(I)cc2)cn1 [Compound 55, 2-chloro-5-((4-iodobenzyl)oxy) pyridine]"
